Laboratory results published in ChEMBL document CHEMBL4507319 (2021).

Key:
[1] = biological target: Insulin receptor (Homo sapiens) (UniProt P06213); test: IR(h), activated Eurofins kinase panel; conditions: Compound concentration 1.0 uM
[2] = biological target: Mitogen-activated protein kinase 14 (Homo sapiens) (UniProt Q16539); test: SAPK2a(h) Eurofins kinase panel; conditions: Compound concentration 1.0 uM
[3] = biological target: T1, Serine/threonine-protein kinase TAO2 (Homo sapiens) (UniProt Q9UL54); test: TAO2(h) Eurofins kinase panel; conditions: Compound concentration 1.0 uM
T1 sequence (whole entry): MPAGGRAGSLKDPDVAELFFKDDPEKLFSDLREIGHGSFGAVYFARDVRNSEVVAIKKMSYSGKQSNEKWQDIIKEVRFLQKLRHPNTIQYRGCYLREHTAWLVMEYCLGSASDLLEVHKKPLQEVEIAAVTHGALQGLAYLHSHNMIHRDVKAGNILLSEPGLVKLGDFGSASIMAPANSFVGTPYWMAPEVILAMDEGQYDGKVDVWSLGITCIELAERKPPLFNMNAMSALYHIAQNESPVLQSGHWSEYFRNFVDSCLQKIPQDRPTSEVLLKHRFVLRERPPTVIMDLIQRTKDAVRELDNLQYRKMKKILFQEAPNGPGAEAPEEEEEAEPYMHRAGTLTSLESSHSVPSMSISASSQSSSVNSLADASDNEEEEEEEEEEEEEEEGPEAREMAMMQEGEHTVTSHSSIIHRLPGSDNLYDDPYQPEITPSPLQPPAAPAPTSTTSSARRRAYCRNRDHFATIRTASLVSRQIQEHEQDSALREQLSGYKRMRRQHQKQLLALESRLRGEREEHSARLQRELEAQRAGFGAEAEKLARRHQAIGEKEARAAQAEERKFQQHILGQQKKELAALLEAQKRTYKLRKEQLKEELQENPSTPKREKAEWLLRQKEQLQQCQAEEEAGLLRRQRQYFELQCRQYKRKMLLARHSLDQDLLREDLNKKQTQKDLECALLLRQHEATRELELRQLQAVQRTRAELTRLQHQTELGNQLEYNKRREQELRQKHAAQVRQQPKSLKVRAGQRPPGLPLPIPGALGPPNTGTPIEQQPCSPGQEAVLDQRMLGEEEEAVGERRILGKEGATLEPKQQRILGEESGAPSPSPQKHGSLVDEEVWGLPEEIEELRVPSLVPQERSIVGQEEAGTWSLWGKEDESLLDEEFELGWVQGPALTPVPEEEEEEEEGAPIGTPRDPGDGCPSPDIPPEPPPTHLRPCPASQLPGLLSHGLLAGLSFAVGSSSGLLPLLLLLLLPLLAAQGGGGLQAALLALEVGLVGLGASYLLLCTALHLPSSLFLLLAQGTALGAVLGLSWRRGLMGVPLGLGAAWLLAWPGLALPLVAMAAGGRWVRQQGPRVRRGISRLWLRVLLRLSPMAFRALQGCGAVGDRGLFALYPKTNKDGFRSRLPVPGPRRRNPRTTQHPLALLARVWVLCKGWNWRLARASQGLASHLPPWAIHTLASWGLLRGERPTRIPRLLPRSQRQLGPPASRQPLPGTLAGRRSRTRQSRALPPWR

NCI-H292 = test: NCI- H292 cell line Proliferation assay; assay type: functional, Homo sapiens; conditions: time 3 day
[4] = biological target: T2, Activin receptor type-1 (Homo sapiens) (UniProt Q04771); test: ALK2(h) Eurofins kinase panel; conditions: Compound concentration 1.0 uM
T2 sequence (whole entry): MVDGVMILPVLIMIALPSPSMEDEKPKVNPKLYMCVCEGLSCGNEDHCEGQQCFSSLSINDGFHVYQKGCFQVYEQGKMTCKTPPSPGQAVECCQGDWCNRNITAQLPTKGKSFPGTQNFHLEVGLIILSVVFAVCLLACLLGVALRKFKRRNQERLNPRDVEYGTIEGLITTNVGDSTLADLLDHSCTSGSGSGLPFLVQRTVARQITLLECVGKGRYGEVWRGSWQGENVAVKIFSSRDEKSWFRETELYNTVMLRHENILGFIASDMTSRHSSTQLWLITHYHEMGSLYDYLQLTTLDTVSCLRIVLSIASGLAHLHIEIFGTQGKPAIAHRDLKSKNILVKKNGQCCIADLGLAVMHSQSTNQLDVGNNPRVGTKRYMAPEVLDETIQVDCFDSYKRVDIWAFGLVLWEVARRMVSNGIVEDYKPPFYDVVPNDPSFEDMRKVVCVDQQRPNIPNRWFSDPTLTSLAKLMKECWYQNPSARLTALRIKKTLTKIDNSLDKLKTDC

[5] = biological target: T3, Beta-adrenergic receptor kinase 1 (Homo sapiens) (UniProt P25098); test: GRK2(h) Eurofins kinase panel; conditions: Compound concentration 1.0 uM
T3 sequence (whole entry): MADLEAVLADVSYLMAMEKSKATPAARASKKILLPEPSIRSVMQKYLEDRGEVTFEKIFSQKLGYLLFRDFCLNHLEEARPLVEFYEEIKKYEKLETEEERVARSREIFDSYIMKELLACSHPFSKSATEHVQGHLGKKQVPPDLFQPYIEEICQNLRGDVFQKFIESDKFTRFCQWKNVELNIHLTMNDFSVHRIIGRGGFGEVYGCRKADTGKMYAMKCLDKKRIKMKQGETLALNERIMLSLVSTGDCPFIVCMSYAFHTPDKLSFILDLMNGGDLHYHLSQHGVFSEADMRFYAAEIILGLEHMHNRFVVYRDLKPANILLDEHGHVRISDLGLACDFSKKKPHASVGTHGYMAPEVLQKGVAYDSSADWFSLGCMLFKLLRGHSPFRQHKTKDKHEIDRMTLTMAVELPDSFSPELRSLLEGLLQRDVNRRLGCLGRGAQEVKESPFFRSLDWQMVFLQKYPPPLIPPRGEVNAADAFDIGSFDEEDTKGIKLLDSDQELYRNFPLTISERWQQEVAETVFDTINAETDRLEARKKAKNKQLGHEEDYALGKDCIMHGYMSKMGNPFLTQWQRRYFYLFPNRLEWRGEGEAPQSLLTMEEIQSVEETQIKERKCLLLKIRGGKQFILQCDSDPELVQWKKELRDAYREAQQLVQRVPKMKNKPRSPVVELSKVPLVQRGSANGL

[6] = biological target: Tyrosine-protein kinase Blk (Homo sapiens) (UniProt P51451); test: Blk(h) Eurofins kinase panel; conditions: Compound concentration 1.0 uM
[7] = biological target: Bone morphogenetic protein receptor type-1B (Homo sapiens) (UniProt O00238); test: ALK6(h) Eurofins kinase panel; conditions: Compound concentration 1.0 uM
Bone morphogenetic protein receptor type-1B (Homo sapiens), sequence (O00238 whole entry): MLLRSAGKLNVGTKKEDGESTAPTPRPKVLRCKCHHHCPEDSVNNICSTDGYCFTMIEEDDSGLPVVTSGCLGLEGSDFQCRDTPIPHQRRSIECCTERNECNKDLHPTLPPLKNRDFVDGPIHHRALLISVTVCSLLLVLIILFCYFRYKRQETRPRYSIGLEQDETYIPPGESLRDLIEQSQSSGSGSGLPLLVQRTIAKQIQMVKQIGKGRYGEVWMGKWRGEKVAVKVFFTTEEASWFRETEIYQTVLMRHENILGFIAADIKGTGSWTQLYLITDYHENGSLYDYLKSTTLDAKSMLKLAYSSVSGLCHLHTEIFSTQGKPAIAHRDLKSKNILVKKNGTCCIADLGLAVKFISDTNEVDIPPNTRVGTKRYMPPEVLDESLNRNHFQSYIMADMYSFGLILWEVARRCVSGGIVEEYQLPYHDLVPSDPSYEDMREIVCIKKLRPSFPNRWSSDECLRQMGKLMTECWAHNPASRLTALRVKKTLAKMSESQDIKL

[8] = biological target: Receptor-type tyrosine-protein kinase FLT3 (Homo sapiens) (UniProt P36888); conditions: Compound concentration 1.0 uM
Receptor-type tyrosine-protein kinase FLT3 (Homo sapiens), sequence (P36888 whole entry): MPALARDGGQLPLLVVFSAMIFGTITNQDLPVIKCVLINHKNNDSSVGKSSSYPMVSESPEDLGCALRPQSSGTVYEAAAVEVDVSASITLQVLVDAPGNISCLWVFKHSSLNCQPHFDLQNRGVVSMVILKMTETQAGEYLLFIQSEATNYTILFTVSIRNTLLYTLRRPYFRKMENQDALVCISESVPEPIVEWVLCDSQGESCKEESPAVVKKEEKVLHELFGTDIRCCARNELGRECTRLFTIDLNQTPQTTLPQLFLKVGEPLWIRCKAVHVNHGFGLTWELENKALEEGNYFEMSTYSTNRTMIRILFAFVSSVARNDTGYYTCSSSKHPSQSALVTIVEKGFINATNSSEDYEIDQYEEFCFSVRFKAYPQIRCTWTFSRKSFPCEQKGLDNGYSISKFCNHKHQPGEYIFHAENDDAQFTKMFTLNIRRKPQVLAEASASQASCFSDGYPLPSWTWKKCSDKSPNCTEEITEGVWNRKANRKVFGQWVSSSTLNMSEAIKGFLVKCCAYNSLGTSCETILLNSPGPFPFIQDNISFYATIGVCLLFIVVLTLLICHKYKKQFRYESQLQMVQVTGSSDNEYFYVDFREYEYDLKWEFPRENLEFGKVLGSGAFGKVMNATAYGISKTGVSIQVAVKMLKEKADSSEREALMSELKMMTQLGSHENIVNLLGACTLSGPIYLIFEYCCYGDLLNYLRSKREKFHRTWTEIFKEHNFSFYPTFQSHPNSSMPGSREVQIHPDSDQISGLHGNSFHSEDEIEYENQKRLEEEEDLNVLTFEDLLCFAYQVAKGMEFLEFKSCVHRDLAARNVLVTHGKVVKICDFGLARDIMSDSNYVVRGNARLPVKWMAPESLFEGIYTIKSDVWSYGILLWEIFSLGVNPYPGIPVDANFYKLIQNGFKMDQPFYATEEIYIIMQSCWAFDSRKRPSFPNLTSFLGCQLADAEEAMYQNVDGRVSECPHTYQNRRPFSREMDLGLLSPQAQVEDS

[9] = biological target: Tyrosine-protein kinase JAK2 (Homo sapiens) (UniProt O60674); test: JAK2(h) Eurofins kinase panel; conditions: Compound concentration 1.0 uM
Tyrosine-protein kinase JAK2 (Homo sapiens), sequence (O60674 whole entry): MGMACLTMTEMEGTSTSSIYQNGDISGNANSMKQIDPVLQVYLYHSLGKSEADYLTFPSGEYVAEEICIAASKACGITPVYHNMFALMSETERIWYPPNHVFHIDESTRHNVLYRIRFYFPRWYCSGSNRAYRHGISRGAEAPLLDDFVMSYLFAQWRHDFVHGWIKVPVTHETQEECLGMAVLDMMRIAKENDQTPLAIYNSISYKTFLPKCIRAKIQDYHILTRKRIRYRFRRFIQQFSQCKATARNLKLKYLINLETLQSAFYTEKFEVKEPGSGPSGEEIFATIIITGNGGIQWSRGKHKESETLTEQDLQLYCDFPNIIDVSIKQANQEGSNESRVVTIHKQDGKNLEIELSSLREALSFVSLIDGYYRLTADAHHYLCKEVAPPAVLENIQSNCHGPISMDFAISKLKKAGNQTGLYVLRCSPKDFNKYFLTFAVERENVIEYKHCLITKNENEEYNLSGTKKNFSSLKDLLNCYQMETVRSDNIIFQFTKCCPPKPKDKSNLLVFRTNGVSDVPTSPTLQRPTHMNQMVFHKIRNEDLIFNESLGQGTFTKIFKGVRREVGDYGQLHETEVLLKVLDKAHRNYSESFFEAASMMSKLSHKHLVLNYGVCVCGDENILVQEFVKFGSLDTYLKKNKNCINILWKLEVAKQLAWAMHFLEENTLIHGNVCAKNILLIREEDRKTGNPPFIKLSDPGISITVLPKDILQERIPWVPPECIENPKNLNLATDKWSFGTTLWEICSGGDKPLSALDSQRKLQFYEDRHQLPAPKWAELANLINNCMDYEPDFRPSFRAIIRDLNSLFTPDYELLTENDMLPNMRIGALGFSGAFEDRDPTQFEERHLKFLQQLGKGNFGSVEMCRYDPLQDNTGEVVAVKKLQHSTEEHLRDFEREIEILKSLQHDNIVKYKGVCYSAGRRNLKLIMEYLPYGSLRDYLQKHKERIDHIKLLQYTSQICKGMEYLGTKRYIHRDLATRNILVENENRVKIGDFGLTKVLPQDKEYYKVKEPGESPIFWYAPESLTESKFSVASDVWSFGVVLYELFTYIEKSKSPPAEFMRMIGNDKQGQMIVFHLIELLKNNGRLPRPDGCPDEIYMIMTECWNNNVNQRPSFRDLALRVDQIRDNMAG

[10] = biological target: GABA-A receptor; anion channel (Rattus norvegicus) (UniProt O09028+P15431+P18506+P18508+P19969+P20236+P23574+P23576+P28471+P28473+P30191+P62813+P63079+P63138+Q91ZM7+Q9ES14); conditions: Compound concentration 10.0 uM
[11] = biological target: Beta-3 adrenergic receptor (Homo sapiens) (UniProt P13945); conditions: Compound concentration 10.0 uM
Beta-3 adrenergic receptor (Homo sapiens), sequence (P13945 whole entry, looked up): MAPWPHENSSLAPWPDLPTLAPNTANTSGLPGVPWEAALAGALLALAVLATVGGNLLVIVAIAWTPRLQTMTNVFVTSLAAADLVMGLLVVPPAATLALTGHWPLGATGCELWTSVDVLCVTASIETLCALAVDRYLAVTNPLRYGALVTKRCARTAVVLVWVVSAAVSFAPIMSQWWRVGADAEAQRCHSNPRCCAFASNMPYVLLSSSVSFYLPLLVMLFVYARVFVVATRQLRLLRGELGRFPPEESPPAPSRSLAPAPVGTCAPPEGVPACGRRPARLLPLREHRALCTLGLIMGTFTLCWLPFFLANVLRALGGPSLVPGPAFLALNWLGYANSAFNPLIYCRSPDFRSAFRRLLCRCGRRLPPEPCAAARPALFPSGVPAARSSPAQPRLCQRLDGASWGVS

Insulin receptor (Homo sapiens), sequence (P06213 28-758 limits assumed): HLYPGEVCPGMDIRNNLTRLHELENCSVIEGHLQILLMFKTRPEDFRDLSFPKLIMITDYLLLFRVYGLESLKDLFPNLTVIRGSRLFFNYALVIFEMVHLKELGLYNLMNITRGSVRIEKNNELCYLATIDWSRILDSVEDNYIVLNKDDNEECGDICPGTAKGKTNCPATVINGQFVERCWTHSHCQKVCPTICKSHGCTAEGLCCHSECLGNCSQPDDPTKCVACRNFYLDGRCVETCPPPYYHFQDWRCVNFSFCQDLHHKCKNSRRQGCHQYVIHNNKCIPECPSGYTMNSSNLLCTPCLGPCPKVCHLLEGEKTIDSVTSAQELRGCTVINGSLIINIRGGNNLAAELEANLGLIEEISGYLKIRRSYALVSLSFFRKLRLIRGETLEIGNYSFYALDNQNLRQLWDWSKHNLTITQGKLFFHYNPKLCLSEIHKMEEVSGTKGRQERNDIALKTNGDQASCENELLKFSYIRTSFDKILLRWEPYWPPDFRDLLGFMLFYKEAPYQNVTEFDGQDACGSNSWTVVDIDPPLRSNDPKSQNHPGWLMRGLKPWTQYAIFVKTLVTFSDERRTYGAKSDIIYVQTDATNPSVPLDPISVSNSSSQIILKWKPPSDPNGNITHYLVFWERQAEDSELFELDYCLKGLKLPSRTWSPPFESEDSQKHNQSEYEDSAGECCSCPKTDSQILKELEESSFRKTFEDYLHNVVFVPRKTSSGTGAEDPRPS
Insulin receptor (Homo sapiens), sequence (P06213 763-1382 limits assumed): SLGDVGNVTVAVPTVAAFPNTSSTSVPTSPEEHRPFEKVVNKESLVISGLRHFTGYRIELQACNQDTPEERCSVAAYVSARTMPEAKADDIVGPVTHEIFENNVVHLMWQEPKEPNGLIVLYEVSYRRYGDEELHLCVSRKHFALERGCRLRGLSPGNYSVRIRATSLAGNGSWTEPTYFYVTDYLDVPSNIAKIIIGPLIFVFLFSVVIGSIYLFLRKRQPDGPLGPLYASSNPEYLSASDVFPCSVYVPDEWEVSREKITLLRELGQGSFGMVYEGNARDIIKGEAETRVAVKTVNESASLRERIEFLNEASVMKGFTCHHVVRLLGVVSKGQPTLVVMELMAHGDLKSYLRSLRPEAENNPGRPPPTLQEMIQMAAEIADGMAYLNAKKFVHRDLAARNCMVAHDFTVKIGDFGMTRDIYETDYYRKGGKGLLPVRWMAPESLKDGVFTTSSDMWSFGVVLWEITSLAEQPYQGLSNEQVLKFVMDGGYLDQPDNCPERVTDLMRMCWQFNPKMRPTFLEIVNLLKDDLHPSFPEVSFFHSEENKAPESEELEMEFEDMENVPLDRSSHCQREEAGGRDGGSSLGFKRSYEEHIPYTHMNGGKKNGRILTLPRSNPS
Mitogen-activated protein kinase 14 (Homo sapiens), sequence (Q16539 whole entry): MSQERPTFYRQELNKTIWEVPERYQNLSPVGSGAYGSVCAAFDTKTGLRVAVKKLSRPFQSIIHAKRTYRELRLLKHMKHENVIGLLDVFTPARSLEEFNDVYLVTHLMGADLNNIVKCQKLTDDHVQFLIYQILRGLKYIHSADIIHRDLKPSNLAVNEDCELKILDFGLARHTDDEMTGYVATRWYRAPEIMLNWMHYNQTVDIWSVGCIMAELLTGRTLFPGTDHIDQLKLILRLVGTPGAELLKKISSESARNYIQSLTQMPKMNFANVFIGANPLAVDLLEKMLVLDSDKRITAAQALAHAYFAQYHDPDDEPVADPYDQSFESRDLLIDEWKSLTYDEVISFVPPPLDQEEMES

CCc1ccccc1C(=O)Nc1n[nH]c2c(C)c(F)c(C3C(C#N)=C(C)N(C)C(C)=C3C#N)cc12 [BAY-3827]
% residual kinase activity [1]: 89% | % residual kinase activity [2]: 101% | % residual kinase activity [3]: 104% | Cell Proliferation IC50 (NCI-H292): 17.1 µM | % residual kinase activity [4]: 109% | % residual kinase activity [5]: 102% | % residual kinase activity [6]: 111% | % residual kinase activity [7]: 99% | % residual kinase activity [8]: 7% | % residual kinase activity [9]: 88%

CC1=C(C#N)C(c2ccc3c(c2)c(NC(=O)c2ccccc2C)nn3C)C(C#N)=C(C)N1 [BAY-974]
inhibition [10]: -1.23% | inhibition [11]: -3.33%
